In US6545011B2, “Substituted 4,9-dihydrocyclopenta[imn]phenanthridine-5-ones, derivatives thereof and their uses” (Guilford Pharmaceuticals Inc., priority 2000, dated 2003):
Values joined by “and” are separate entries in the source; they are usually repeats but may differ in a detail not shown here. Identical values can stand only once.

Test system: MSU crystal-induced neutrophil recruitment
Assay: Gout model: MSU crystal-induced neutrophil recruitment (peritonitis)
Type: in vivo, mouse
Details: 45 mg/kg i.p. 1 h prior to 3 mg MSU crystals; 6 h; group C, n=8; vehicle group B 6.30 ± 0.33
Procedure: Male outbread Swiss albino mice (20-22 g body weight) were purchased from Banton and Kingsman (T.O. strain; Hull, Humberside) and maintained on a standard chow pellet diet with tap water ad libitum and a 12:00 h light/dark cycle. All animals were housed for 1 week prior to experimentation to allow body weight to reach 28-30 g.
1,11b-dihydrobenzopyrano[4,3,2-de ]isoquinolin-1-one was dissolved in 100% DMSO at room temperature at a concentration of 45 mg in 2 ml. The compound was then injected into the peritoneal cavity, so as each mouse received a single dose corresponding to 45 mg/2 ml/kg (e.g. 60 μl for a mouse of 30 g). Control mice received DMSO at 2 ml/kg i.p. A third group of mice which were left untreated were added to control for potential effects of the vehicle. The study involved therefore, the following three groups: group A, untreated mice, n=6, group B, DMSO-treated mice, n=8, and group C, mice treated with 1,11b-dihydrobenzopyrano[4,3,2-de ]isoquinolin-1-one, n=8.
MSU crystal-induced neutrophil recruitment was tested as follows. In all cases, mice were treated 1 h after the treatment noted above, with MSU crystals. A homogenous suspension of MSU crystals was obtained by a 30 min rotation. Peritonitis was induced by injection of 3 mg MSU crystals in 0.5 ml PBS (0.1 M, pH 7.4), and the recruitment of neutrophils into the cavity evaluated at the 6 h time point (Getting, et al., 1997, J. Pharmacol. Exp. Ther. 283: 123-130). Animals were then euthanised by CO2 exposure and the peritoneal cavity washed with 3 ml of PBS supplemented with 3 mM EDTA and 25 U/ml heparin.
An aliquot (100 μl) of the lavage fluid was then diluted 1:10 in Turk's solution (0.01% crystal violet in 3% acetic acid). The samples were then vortexed and 10 μl of the stained cell solution were placed in a Neubauer haematocymometer and neutrophils numbers counted using a light microscope (Olympus B061). […]
Data are shown for single mice, and also shown as mean±S.E. of (n) mice per group. Statistical differences were determined by ANOVA, plus Bonferroni test. […]

Row | Compound | Neutrophils (mean ± S.E.)
1 | O=C1N=Cc2cccc3c2C1c1ccccc1O3 (centres unmarked) [1,11b-dihydrobenzopyrano[4,3,2-de]isoquinolin-1-one] | 2.85 ± 0.34 (8)* 10^6 per mouse

Same assay, conditions: 45 mg/kg i.p. 1 h prior to 3 mg MSU crystals; peritoneal lavage at 6 h; group C, one value per mouse

Row | Compound | Neutrophil Numbers (single mice)
2 | O=C1N=Cc2cccc3c2C1c1ccccc1O3 (centres unmarked) [1,11b-dihydrobenzopyrano[4,3,2-de]isoquinolin-1-one] | 2.4 10^6 per mouse (2×) and 3.0 10^6 per mouse (2×) and 2.7 10^6 per mouse and 2.1 10^6 per mouse (2×) and 5.1 10^6 per mouse

Same assay, conditions: 45 mg/kg i.p.; 6 h after MSU crystals

Row | Compound | inhibition of cell influx vs. the vehicle group [%]
3 | O=C1N=Cc2cccc3c2C1c1ccccc1O3 (centres unmarked) [1,11b-dihydrobenzopyrano[4,3,2-de]isoquinolin-1-one] | 55

Test system: ischemia and reperfusion of the heart
Assay: not given
Details: rabbit; single injection 1 mg/kg; cited from earlier work

Row | Compound | reduction in infarct size
4 | Oc1cccc2c(O)nccc12 [1,5-dihydroxyisoquinoline] | 38-48%

Same assay, conditions: rabbit; single injection 10 mg/kg, one minute before occlusion or before reperfusion; cited from earlier work

Row | Compound | reduction in infarct size in the heart
5 | NC(=O)c1cccc(N)c1 [3-amino-benzamide] | 32-42%

Test system: PARP
Assay: not given
Details: read-out: IC50 for inhibiting PARP; reported by Suto et al.; cited from earlier work

Row | Compound | IC50 [nM]
6 | O=C1NCCc2c(OCCCCN3CCCCC3)cccc21 [DPQ, 3,4-dihydro-5-[4-(1-piperidinyl)-butoxy]-1(2H)-isoquinolinone] | 40

Biological target: T1, purified recombinant human PARP (Homo sapiens, UniProt P09874)
T1 construct: purchased Trevigan (Gaithersburg, Md.)
Assay: PARP enzyme assay (IC50), [3H]NAD incorporation
Type: biochemical
Details: approximate values, read-out: Inhibition IC50
Procedure: The reaction is initiated by incubating the mixture at 25° C. After 15 minutes of incubation, the reaction is terminated by adding 500 microliters of ice cold 20% (w/v) trichloroacetic acid. The precipitate formed is transferred onto a glass fiber filter (Packard Unifilter-GF/B) and washed three times with ethanol. After the filter is dried, the radioactivity is determined by scintillation counting.
Using the PARP assay described above, approximate IC50 (μM) values were obtained as shown in the following Table III, which also include specific embodiments of the compounds of the present invention: […]

T1 sequence (P09874 whole entry): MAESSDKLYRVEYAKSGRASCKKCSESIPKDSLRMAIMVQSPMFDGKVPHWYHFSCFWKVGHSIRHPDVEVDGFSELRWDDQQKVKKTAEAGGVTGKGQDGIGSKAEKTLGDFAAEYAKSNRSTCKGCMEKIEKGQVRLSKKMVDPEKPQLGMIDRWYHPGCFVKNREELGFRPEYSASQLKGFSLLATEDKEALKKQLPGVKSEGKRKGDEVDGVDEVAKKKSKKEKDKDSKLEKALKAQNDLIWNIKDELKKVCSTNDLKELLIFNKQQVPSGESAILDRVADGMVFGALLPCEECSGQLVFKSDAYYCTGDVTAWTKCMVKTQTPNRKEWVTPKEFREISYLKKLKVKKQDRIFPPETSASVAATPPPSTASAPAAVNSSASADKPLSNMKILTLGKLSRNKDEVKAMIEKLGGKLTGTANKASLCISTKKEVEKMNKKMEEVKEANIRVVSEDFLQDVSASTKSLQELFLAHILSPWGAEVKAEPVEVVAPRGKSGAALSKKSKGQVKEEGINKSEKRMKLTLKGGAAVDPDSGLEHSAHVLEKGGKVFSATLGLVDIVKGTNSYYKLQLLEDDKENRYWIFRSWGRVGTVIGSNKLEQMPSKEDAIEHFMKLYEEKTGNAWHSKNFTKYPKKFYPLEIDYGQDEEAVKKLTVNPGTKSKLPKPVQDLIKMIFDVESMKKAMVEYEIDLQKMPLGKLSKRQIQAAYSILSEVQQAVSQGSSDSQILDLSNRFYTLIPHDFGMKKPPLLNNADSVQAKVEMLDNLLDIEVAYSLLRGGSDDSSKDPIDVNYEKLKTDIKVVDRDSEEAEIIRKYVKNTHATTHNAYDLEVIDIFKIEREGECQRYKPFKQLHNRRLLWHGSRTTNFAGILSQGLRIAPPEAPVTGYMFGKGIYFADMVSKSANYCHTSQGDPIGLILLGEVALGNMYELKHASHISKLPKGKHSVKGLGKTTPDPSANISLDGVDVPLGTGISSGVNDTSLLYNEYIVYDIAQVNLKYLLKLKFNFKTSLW

Row | Compound | IC50 [nM]
7 | O=c1[nH]c2cccc3c2c2c(cccc12)C3 [Compound 1, 5,9-dihydro-4[H]cyclopenta[lmn]phenathridin-5-one] | 100
8 | O=c1[nH]c2ccc(S(=O)(=O)O)c3c2c2c(cccc12)C3 [Compound 2, 5,9-Dihydro-5-oxo-4[H]cyclopenta[lmn]phenathridine-1-sulfonic acid] | 110
9 | O=c1[nH]c2ccc([N+](=O)[O-])c3c2c2c(cccc12)C3 [Compound 4, 5,9-dihydro-1-nitro-4[H]cyclopenta[lmn]phenathridin-5-one] | 111
10 | Nc1ccc2[nH]c(=O)c3cccc4c3c2c1C4 [Compound 5, 5,9-dihydro-1-amino-4[H]cyclopenta[lmn]phenathridin-5-one] | 60
11 | O=c1[nH]c2ccc(S(=O)(=O)N3CCN(c4ccccn4)CC3)c3c2c2c(cccc12)C3 [Compound 6] | 380
12 | O=c1[nH]c2ccc(S(=O)(=O)NCCN3CCOCC3)c3c2c2c(cccc12)C3 [Compound 8, 5,9-Dihydro-N-[2-(4-morpholinyl)ethyl]-1-oxo-[H]cyclopenta[lmn]phenathridine-1-sulfonamide] | 70
13 | CN1CCN(S(=O)(=O)c2ccc3[nH]c(=O)c4cccc5c4c3c2C5)CC1 [Compound 9, 5,9-Dihydro-1-[(4-methyl-1-piperazinyl)sulfonyl]-4[H]cyclopenta[lmn]phenathridin-5-one] | 130
14 | O=c1[nH]c2ccc(S(=O)(=O)NCCc3ccncc3)c3c2c2c(cccc12)C3 [Compound 10] | 70
15 | O=c1[nH]c2ccc(S(=O)(=O)NCCN3CCCCC3)c3c2c2c(cccc12)C3 [Compound 11, 5,9-Dihydro-5-oxo-N-[2-(1-piperidinyl)ethyl]-4[H]cyclopenta[lmn]phenathridine-1-sulfonamide] | 50
16 | O=c1[nH]c2ccc(S(=O)(=O)N3CCOCC3)c3c2c2c(cccc12)C3 [Compound 12, 5,9-Dihydro-1-(4-morpholinylsulfonyl)-4[H]cyclopenta[lmn]phenathridin-5-one] | 40
17 | CC(=O)Nc1ccc2[nH]c(=O)c3cccc4c3c2c1C4 [Compound 13, 5,9-Dihydro-5-oxo-4[H]cyclopenta[mn]phenathridin-1-yl acetamide] | 50
18 | O=C(Nc1ccc2[nH]c(=O)c3cccc4c3c2c1C4)c1cccc(F)c1 [Compound 14, N-(5,9-Dihydro-5-oxo-4[H]cyclopenta[lmn]phenathridin-1-yl)-3-fluorbenzamide] | 80
19 | O=c1[nH]c2cccc3c(=O)c4cccc1c4c23 [Compound 16, 9-oxo-5,9-dihydro-4[H]cyclopenta[lmn]phenathridin-5-one] | 70
20 | O=c1[nH]c2cc(F)cc3c(=O)c4cc(F)cc1c4c23 [Compound 17] | 30
21 | O=c1[nH]c2cccc3c2c2c(cccc12)C3O (centres unmarked) [Compound 18] | 120
22 | O=c1[nH]c2cc(F)cc3c2c2c(cc(F)cc12)C3O (centres unmarked) [Compound 19] | 100
23 | CC(=O)OC1c2cccc3[nH]c(=O)c4cccc1c4c23 (centres unmarked) [Compound 20] | 810
24 | CC(=O)OC1c2cc(F)cc3[nH]c(=O)c4cc(F)cc1c4c23 (centres unmarked) [Compound 21, 5,9-Dihydro-2,7-difluoro-5-oxo-4[H]cyclopenta[lmn]phenathridin-9-yl acetate] | 360
25 | O=c1[nH]c2cc(Cl)cc3[nH]c4cc(Cl)cc1c4c23 [Compound 22, 2,7,-Dichloro-5,9-dihydro-4[H]pyrrol[2,3,4,5-lmn]phenathridin-5-one] | 20
26 | N-(5,9-Dihydro-5-oxo-4[H]cyclopenta[lmn]phenathridin-1-yl)-4-fluorbenzamide [Compound 15] | 70
